Drawing on ChEMBL document CHEMBL6153174, “Design and Synthesis of Novel Deazapurine DNMT 1 Inhibitors with In Vivo Efficacy in DLBCL” (J Med Chem, 2025), this text covers Activity, Cmax and IC50 for one compound.

In general, Cmax refers to the highest concentration seen after dosing. In general, IC50 refers to the midpoint of a concentration-inhibition curve.

Series [1] deals with DOHH-2. The series is described as follows: Induction of apoptosis in human DOHH-2 cells assessed as early apoptotic cells at 2.5 uM measured after 48 hrs by annexin-V/FITC and PI staining based flow cytometry analysis (reference value: 5.69%). Format: functional.
The nature of series [2]: Subacute toxicity in Balb/C mouse assessed as effect on heart at 30 mg/kg, iv administered three times in a week for 2 weeks. Format: organism-based. The settings on record: in vivo, 336 h.
Series [3] in a line: Cmax in Sprague-Dawley rat at 10 mg/kg, po measured upto 24 hrs by LC/MS/MS analysis. Format: ADME, organism-based. The settings on record: in vivo.
The next series deals with TMD8. The series is described as follows: Induction of apoptosis in human TMD8 cells assessed as late apoptotic cells at 5 uM measured after 48 hrs by annexin-V/FITC and PI staining based flow cytometry analysis (reference value: 5.13%). Format: functional.
A short description of series [4]: Antiproliferative activity against human NK-YS cells assessed as inhibition of cell viability measured after 72 hrs by MTT assay. The format is functional, cell-based. (Tetrazolium assays rely on reduction of a dye to a coloured formazan, in cell work by metabolically active cells.)
Series [5] relates to DOHH-2. The series is described as follows: Induction of apoptosis in human DOHH-2 cells assessed as late apoptotic cells at 5 uM measured after 48 hrs by annexin-V/FITC and PI staining based flow cytometry analysis (reference value: 3.66%). Format: functional. Background: In flow cytometry, cells or beads pass a laser one at a time.
Series [6] in a line: Antitumor activity against human TMD8 cells harbouring TP53 mutant xenografted in mouse model assessed as body weight change at 10 mg/kg, iv administered three times a week in presence of chidamide relative to control. Format: functional. Background: In xenograft studies the graft and the host belong to different species.
The target of series [7] is DNA (cytosine-5)-methyltransferase 3A (Homo sapiens, UniProt Q9Y6K1). The series is described as follows: Inhibition of DNMT3A (unknown origin) preincubated for 15 mins followed by substrate and [3H-SAM] addition and measured after 60 mins by microbeta analysis.
Chain of DNA (cytosine-5)-methyltransferase 3A (Q9Y6K1 whole entry, looked up): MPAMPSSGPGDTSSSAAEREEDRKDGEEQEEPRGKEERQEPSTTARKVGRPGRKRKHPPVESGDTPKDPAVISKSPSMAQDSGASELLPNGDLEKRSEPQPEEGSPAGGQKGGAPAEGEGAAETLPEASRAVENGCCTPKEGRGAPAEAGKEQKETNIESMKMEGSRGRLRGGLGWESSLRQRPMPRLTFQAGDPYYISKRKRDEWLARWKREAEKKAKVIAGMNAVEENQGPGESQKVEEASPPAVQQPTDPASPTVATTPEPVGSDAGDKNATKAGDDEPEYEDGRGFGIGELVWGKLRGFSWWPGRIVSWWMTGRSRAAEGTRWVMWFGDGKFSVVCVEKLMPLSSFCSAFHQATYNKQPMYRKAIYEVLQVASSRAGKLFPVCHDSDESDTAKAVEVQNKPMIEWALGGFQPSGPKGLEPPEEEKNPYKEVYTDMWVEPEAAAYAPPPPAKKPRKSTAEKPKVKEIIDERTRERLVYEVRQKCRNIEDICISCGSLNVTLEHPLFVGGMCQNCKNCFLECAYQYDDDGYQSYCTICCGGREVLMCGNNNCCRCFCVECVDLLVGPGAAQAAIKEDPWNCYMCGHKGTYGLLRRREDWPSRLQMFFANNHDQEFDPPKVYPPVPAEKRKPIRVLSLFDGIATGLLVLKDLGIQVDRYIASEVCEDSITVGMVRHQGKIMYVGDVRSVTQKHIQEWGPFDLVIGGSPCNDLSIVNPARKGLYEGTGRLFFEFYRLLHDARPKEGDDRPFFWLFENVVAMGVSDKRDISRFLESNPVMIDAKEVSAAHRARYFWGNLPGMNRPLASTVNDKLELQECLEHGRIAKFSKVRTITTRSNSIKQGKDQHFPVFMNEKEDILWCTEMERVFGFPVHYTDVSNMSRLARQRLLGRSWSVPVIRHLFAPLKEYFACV
The subject of series [8] is DOHH-2. The experiment in a line: Induction of cell cycle arrest in human DOHH-2 cells assessed as accumulation of cells at G2-M phase at 0.25 uM incubated for 24 hrs by PI staining based flow cytometry analysis (reference value: 27.8%). The format is functional.
A short description of series [9]: Subacute toxicity in Balb/C mouse assessed as effect on peripheral blood at 10 mg/kg, iv administered three times in a week for 2 weeks. Format: organism-based. The note with it: in vivo, 336 h.
In series [10] the test system is DOHH-2. The experiment in a line: Induction of apoptosis in human DOHH-2 cells assessed as early apoptotic cells at 5 uM measured after 48 hrs by annexin-V/FITC and PI staining based flow cytometry analysis (reference value: 5.69%). The format is functional.
Series [11] in a line: Subacute toxicity in Balb/C mouse assessed as effect on spleen at 30 mg/kg, iv administered three times in a week for 2 weeks. Format: organism-based. The settings on record: in vivo, 336 h.
Series [12] concerns DOHH-2. The series is described as follows: Induction of cell cycle arrest in human DOHH-2 cells assessed as accumulation of cells at G2/M phase incubated for 24 hrs by PI staining based flow cytometry analysis. Format: functional. The note with it: dose 0.25-1 µM.

For the compound `CN1CCC(Nc2nc(-c3ccnc(F)c3)nc3c2ccn3CCCN2CCCC2)CC1`, the Activity with DOHH-2 [1] was 33.7%; in series [2] it was “Non-toxic”; with TMD8, 17%; with DOHH-2 [5], 34.7%; in [6], -1.5%; in the series with DOHH-2 [8], 29.9%. Moreover, the Activity result was “Non-toxic” in [9], 44.7% in the series with DOHH-2 [10], “Non-toxic” in series [11] and “Dose-dependent-effect” in the series with DOHH-2 [12]. For the same compound, the concentration in series [3] peaked (Cmax) at 16.7 ng/mL. In addition, the concentration for half-maximal inhibition (IC50) amounted to 0.77 µM in [4] and 14.4 µM in series [7].
